Here are results for three substances from patent publication CN111729074A, “多肽rl25在制备抗肿瘤药物中的应用” (Zhuhai Campus Of Zunyi Medical University, priority 2020, dated 2020).

For data set [1], the system named is 3 tumour cells HCT-8, SKVO3, MCF-7 (3种肿瘤细胞). Nature of the data set: MTT assay of cell proliferation, tumour cells (24 h). In kind it is cell-based. To be noted: for inhibitory effect on the 3 tumour cells: HCT-8, SKVO3, MCF-7, 24 h, in words (IC50 table is a picture); for killing effect on / toxicity to various tumour cells: summary statement.
The subject of another data set is HK2 cells (人肾小管上皮细胞). Nature of the data set: MTT assay of cell proliferation, normal cells HK2 (24 h). In kind it is cell-based, human. The conditions noted are these: for toxicity / side effect on HK2: in words; for toxicity to normal cells: summary statement. (In general: Tetrazolium assays rely on reduction of a dye to a coloured formazan, in cell work by metabolically active cells.)

Another data set relates to tumour (肿瘤). The conditions noted are these: background statement on LL37; cited from earlier work.
A further data set relates to normal cells (正常细胞). To be noted: background statement on LL37; cited from earlier work.
Data set [2] concerns HCT-8 cells. Nature of the data set: HCT-8 apoptosis, Annexin V-FITC/PI flow cytometry (24 h). In kind it is cell-based, human. To be noted: for concentration dependence of apoptosis / average apoptosis rate / early apoptosis: HCT-8, 24 h; for early apoptosis: versus control. (In general: A flow cytometer gives signals particle by particle.)
Data set [3] deals with HCT-8 cells. Description: HCT-8 mitochondrial membrane potential, JC-1 flow cytometry (24 h). The conditions noted are these: HCT-8, 24 h; for mitochondrial membrane potential: with rising concentration (0-4 μM), versus control, P<0.01. The class given is cell-based, human.
The subject of data set [4] is HCT-8 cells. Description: ROS in HCT-8 cells, DCFH-DA flow cytometry (24 h). In kind it is cell-based, human. To be noted: HCT-8, 24 h; for ROS content compared with control: P>0.05.
Data set [5] in a line: Earlier antibacterial test. The conditions noted are these: initial tests.
Data set [6] relates to HCT-8 cells. Nature of the data set: MTT assay of cell proliferation, HCT-8 (therapeutic index). In kind it is cell-based, human. To be noted: in words.

On to “LL37: LL37是hCAP-18蛋白中含有37个氨基酸的C端 [reference compound]”, for which the “inhibitory effect on the 3 tumour cells” value in data set [1] is on record as “抑制效果均表现较好”. For the same substance, in the data set on HK2 cells (人肾小管上皮细胞) (HK2, 24 h), the “toxicity / side effect on HK2” value is listed as “毒副作用也很明显”. For the same substance, the antitumour effect entry with tumour (肿瘤) is “良好的抗肿瘤效应”. Also, the “toxicity to normal cells” value in the data set on normal cells (正常细胞) is reported as “对正常细胞的毒性较大”.

On to RL25: 氨基酸序列为:RLNRLFRKIRQVIRKFEKGIKEKSK, for which, in [1] (3 tumour cells, in words), the “therapeutic index, IC50(HK2)/IC50(tumour cells)” value is listed as “较高”. Moreover, the “therapeutic index compared with SE37” value in [1] (3 tumour cells, versus SE37) is reported as “均高于SE37的治疗指数”. In addition, the “inhibitory effect on tumour cells compared with LL37” value in [1] (3 tumour cells, versus positive drug LL37) is reported as “相近或更好”. In addition, in [1], the “inhibitory effect on the 3 tumour cells” value is recorded as “很好的抑制效果” and the “killing effect on / toxicity to various tumour cells” value was “良好的杀伤效果”. The “toxicity / side effect on HK2” value in the data set with HK2 cells (人肾小管上皮细胞) (HK2, 24 h) is “对正常细胞的毒性小”. The “toxicity to normal cells compared with LL37” value in the data set on HK2 cells (人肾小管上皮细胞) (HK2, 24 h, versus positive drug LL37) is on record as “毒性明显更小”. Besides, the “toxicity to normal cells” value in the data set on HK2 cells (人肾小管上皮细胞) is “毒性轻微”. Also, in the data set on HCT-8 cells [2], the “concentration dependence of apoptosis” value is reported as “明显的浓度依赖性” and the early apoptosis entry is on record as “早期凋亡细胞的数目逐渐增加”. Moreover, the average apoptosis rate in the data set with HCT-8 cells [2] (1 μM) is 29.56%. Besides, the average apoptosis rate with HCT-8 cells [2] (2 μM) came out at 37.44%. Besides, in the data set on HCT-8 cells [2] (4 μM), the average apoptosis rate was 55.15%. Besides, the “killing effect compared with SE37” value in the data set on HCT-8 cells [2] (HCT-8, 4 μM RL25 versus 6 μM SE37) was “强于浓度为6μM的SE37”. Moreover, the mitochondrial membrane potential entry in the data set on HCT-8 cells [3] is listed as “逐渐降低”. The “ROS content, trend” value with HCT-8 cells [4] (0-4 μM) is reported as “先升高后降低”. For the same substance, in the data set on HCT-8 cells [4] (4 μM), the “ROS content compared with control” value was “无明显差异”. Besides, in the data set on HCT-8 cells [4] (peak at 1 μM, versus control P<0.01), the “ROS, mean fluorescence intensity (peak)” value is recorded as 4670±91.804. In addition, in data set [5], the antibacterial performance entry is reported as “较好的抑菌性能”. In the data set on HCT-8 cells [6], the “therapeutic index, IC50(HK2)/IC50(HCT-8)” value was “较高”.

Turning to “SE37: 抗菌肽SE37(其氨基酸序列为:SETRPVLNRLFDKIRQVIRKFEKGIKEKSKRFFDGLL) [reference compound]”, in [1], the “inhibitory effect on the 3 tumour cells” value was “抑制效果均表现较好” and the “killing effect on / toxicity to various tumour cells” value is on record as “毒性均较大”. In the data set with HK2 cells (人肾小管上皮细胞) (HK2, 24 h), the “toxicity / side effect on HK2” value is listed as “毒副作用也很明显”. Besides, in the data set with HK2 cells (人肾小管上皮细胞), the “toxicity to normal cells” value was “毒性均较大”. In the data set with HCT-8 cells [2], the “concentration dependence of apoptosis” value is listed as “一定的浓度依赖性” and the early apoptosis result is “出现明显的早期细胞凋亡”. Further, the average apoptosis rate in the data set with HCT-8 cells [2] (3 μM) is 27.39%. In addition, the average apoptosis rate in the data set on HCT-8 cells [2] (6 μM) is on record as 36.28%. Also, in the data set on HCT-8 cells [3] (0-4 μM), the FL1 channel fluorescence result was “荧光增多” and the FL2 channel fluorescence result is “荧光减少”. For the same substance, the “FL1 channel fluorescence signal” value in the data set on HCT-8 cells [3] (4 μM versus 2 μM) is “并未明显增加”. Moreover, the mitochondrial membrane potential result with HCT-8 cells [3] is “明显降低”. In addition, in the data set with HCT-8 cells [4] (0-8 μM), the “ROS content, trend” value is listed as “先升高后降低”. Besides, the “ROS content compared with control” value in the data set on HCT-8 cells [4] (8 μM) is “已无明显变化”. Besides, in the data set on HCT-8 cells [4] (peak at 2 μM), the “ROS, mean fluorescence intensity (peak)” value was determined as 3127.753±96.501.
